These are literature values, as cited in patent publication US12597519B2, “Methods for characterizing and treating a cancer type using cancer images” (TESARO, INC., priority 2019, dated 2026).

Data set [1] deals with cancer cell lines silenced for BRCA-1 or BRCA-2, or carrying BRCA-1 or BRCA-2 mutations. The conditions noted are these: BRCA-defective cells.
The subject of data set [2] is platinum-sensitive relapsed ovarian cancer.

As to `Cc1ccc(S(=O)(=O)O)cc1.NC(=O)c1cccc2cn(-c3ccc([C@@H]4CCCNC4)cc3)nc12` [Niraparib, (3S)-3-[4-{7-(aminocarbonyl)-2H-indazol-2-yl}phenyl]piperidine], in data set [1], the “mechanism of antiproliferative activity” value is recorded as “cell cycle arrest in G2/M followed by apoptosis”.

As for `O=C(c1cc(Cc2n[nH]c(=O)c3ccccc23)ccc1F)N1CCN(C(=O)C2CC2)CC1` [olaparib, 4-[(3-{[4-(cyclopropylcarbonyl)piperazin-1-yl]carbonyl}-4-fluorophenyl)methyl]phthalazin-1(2H)-one], the overall survival benefit entry in data set [2] (interim analysis, intent to treat populations) is recorded as “unlikely to translate into an overall survival benefit”. Besides, the “outcome in subset of patients who had BRCA mutations” value in data set [2] (planned analysis, BRCA mutation subset) was “clear advantage”.
